# Laboratory results as given in patent US12161675B2, “Production method for culture supernatant preparation” (LABORATORY OF CELL APPLIED TECHNOLOGIES, CO, priority 2018, dated 2024).
# How the values were obtained:
# [1] = tested on: VEGF gene; assay: VEGF gene expression by real-time PCR in adipose tissue-derived mesenchymal stromal cells (ASC); assay type: cell-based, human; details: 48 hours; for Value of mRNA relative quantification (VEGF): 0 ng/mL = 1.00
# Procedure: (§1) Adipose tissue-derived mesenchymal stromal cells extracted by subjecting normal human adipose tissues to an enzyme treatment were cultured using a DME medium (Dulbecco's modified eagle medium manufactured by Gibco, high glucose) including 20% fetal bovine serum (FBS) in a non-treated culture flask (manufactured by FALCON) as primary culture. The primary culture cells right before confluency were recovered by an enzyme treatment, seeded on a non-treated 12-well culture plate (manufactured by Sumitomo Bakelite Co., Ltd.) using the same medium, and cultured until becoming confluent.
# After confirming that the cells became confluent, the medium was removed and the cell surface was rinsed with PBS (Dulbecco's phosphate buffered saline manufactured by DS Pharma Biomedical Co., Ltd.).
# (§2) After rinsing the cells, the medium was replaced with an FBS-free DME medium or HBSS (Hanks' balanced salt solution manufactured by Sigma-Aldrich Co.)-HEPES. Subsequently, 12 wells were divided into 4 groups each consisting of 3 wells, and the FBS-free DME medium was cultured in a 5% CO2 incubator (Reference example) and HBSS-HEPES was cultured in an incubator (Example). The culture supernatant in each well was recovered immediately after replacement (0 hours) and 3 hours, 6 hours, 24 hours, and 48 hours thereafter.
# After recovering the culture supernatant as described above, an RNA extraction solution ISOGEN (Nippon Gene Co., Ltd., No. 319-90211) was added to each well in an amount of 400 microliters and the total RNAs were extracted from the cells in accordance with a conventional method. The precipitate of the total RNAs obtained by using Ethachinmate (Nippon Gene Co., Ltd., No. 312-01791) was dissolved in nuclease-free water. The concentration of the total RNAs was measured using 1.5 microliters of the dissolved RNAs by NanoDrop (Thermo Fisher Scientific). One hundred nanograms of the total RNAs thus obtained were used to synthesize complementary DNA using an iScript cDNA synthesis kit (Bio-Rad Laboratories, Inc., No. 1708891), and the resulting complementary DNA was used for quantifying an expression level of each gene by real-time PCR (Rotor-Gene Q manufactured by QIAGEN).
# The synthesized DNA, primers (QuantiTect Primer Assay, QIAGEN) specific for the gene to be detected and quantified, and a real-time PCR agent (RotorGene SYBR Green, QIAGEN) were mixed, and real-time PCR was performed by using the Rotor-Gene Q system (QIAGEN) to amplify fragments of the gene to be detected and quantified. In this operation, primers specific for β-Actin as a housekeeping gene were used for amplification in the same manner, and this amplification curve was used as a reference to relatively calculate a quantitative value of the gene desired to be detected and quantified. […]
# [2] = tested on: VEGF protein; assay: VEGF protein in ASC culture supernatant by QUANTIKINE ELISA; assay type: cell-based, human; details: 48 hours; for VEGF concentration: ASC culture supernatant, 0 ng/mL gave 199.5
# Procedure: as §1, §2
# The culture supernatant recovered as described in cell culture and recovery of culture supernatant was passed through a filter having a diameter of 0.22 micrometers to prepare a sample for protein quantification.
# Protein quantification of the sample was performed by using the QUANTIKINE ELISA (Human VEGF, FGF-2) kit from R&D Systems, Inc. and a quantitative value of each protein was obtained in accordance with the protocol of the kit.
# The rinsed cells were divided into 4 groups each consisting of 3 wells and their culture media were replaced with HBSS-HEPES added with PGE1 (Prostandin manufactured by Maruishi Pharmaceutical. Co., Ltd.) at a concentration of 0 ng/ml, 4 ng/ml, 40 ng/ml, and 400 ng/ml, followed by culturing in an incubator (Example). At 48 hours after the replacement, the culture supernatant was recovered from each well and subjected to protein quantification using QUANTIKINE ELISA Human VEGF (manufactured by R&D Systems, Inc.). […] The complementary DNA was used to relatively quantify the VEGF gene expression level by real-time PCR (Rotor-Gene Q manufactured by QIAGEN).
# After rising, three groups were each added with 3 mL, 2 mL, or 1 mL of HBSS (Hanks' balanced salt solution manufactured by Sigma-Aldrich Co.)-HEPES pH7.4 and cultured for 48 hours in an incubator (Example). Subsequently, each culture supernatant was recovered in a 5 mL tube (manufactured by BD Falcon) and the VEGF protein was quantified by using QUANTIKINE ELISA Human VEGF (manufactured by R&D Systems, Inc.). […] Then, the complementary DNA was used to relatively quantify the VEGF gene expression level by real-time PCR (Rotor-Gene Q manufactured by QIAGEN). […]
# [3] = Storage stability of freeze-dried culture supernatant (VEGF protein by ELISA); assay type: physicochemical; details: for Value of VEGF relative quantification at each storage temperature: trehalose 250 mM
# Procedure: As was in Example 5, the culture supernatant after 48 hours in the second culturing step was recovered and the culture supernatant obtained by centrifugal separation (740G, 5 minutes) was divided into 2 groups, a no addition group and a group with addition of 250 mM trehalose (manufactured by Hayashibara Co., Ltd.). Subsequently, the culture supernatant was passed through a filtration filter (KURABO INDUSTRIES Ltd.) having a membrane pore diameter of 0.2 micrometers and aliquoted into syringes (Terumo Corp.). The syringes were sealed in sterile bags, frozen in a −80° C. freezer, and then transferred to the inside of the freeze-drying device (Yamato Scientific Co., Ltd.) to perform freeze drying. After the completion of freeze drying, the syringes were sealed with luer caps for syringe (Terumo Corp.). The freeze-dried samples were stored in a sealed state under three temperature conditions of −80° C., 4° C., and 25° for 3 weeks. After 3 weeks, the freeze-dried samples were resuspended in water for injection (manufactured by Otsuka Pharmaceutical Co., Ltd.) and protein quantification was performed using QUANTIKINE ELISA Human VEGF (manufactured by R&D Systems, Inc.). As a quantitative value, a relative quantitative value of the VEGF protein at each storage temperature was calculated by taking a quantitative value of the VEGF protein included in the culture supernatant stored at −80° C. for 3 weeks as a reference.
# [4] = ASC, HBSS-HEPES with PGE1 0 to 400 ng/ml
"Value of VEGF relative quantification at each storage temperature ([3]; freeze-dried culture supernatant stored 3 weeks at 4° C., relative to −80° C.)","Value of VEGF relative quantification at each storage temperature ([3]; freeze-dried culture supernatant stored 3 weeks at 25° C., relative to −80° C.)",Value of VEGF relative quantification at each storage temperature ([3]; freeze-dried culture supernatant stored 3 weeks at −80° C. (reference)),"VEGF protein after storage of freeze-dried culture supernatant ([3]; stored 3 weeks under the environment of 25° C., trehalose final concentration 250 mM)",Compound,Value of mRNA relative quantification (VEGF) ([1]; ASC in HBSS-HEPES with PGE1 4 ng/mL),Value of mRNA relative quantification (VEGF) ([1]; ASC in HBSS-HEPES with PGE1 40 ng/mL),Value of mRNA relative quantification (VEGF) ([1]; ASC in HBSS-HEPES with PGE1 400 ng/mL),"relative quantitative value of the mRNA expression level (VEGF) [1, 4]",VEGF concentration ([2]; HBSS-HEPES with PGE1 4 ng/mL) [pg/mL],VEGF concentration ([2]; HBSS-HEPES with PGE1 40 ng/mL),VEGF concentration ([2]; HBSS-HEPES with PGE1 400 ng/mL) [pg/mL],"protein amount (VEGF) in culture supernatant [2, 4]"
–,–,–,–,CCCCC[C@H](O)/C=C/[C@H]1[C@H](O)CC(=O)[C@@H]1CCCCCCC(=O)O [PGE1],0.88,1.04,0.97,remained substantially constant,201.8,281. 5 pg/mL,299.0,tended to increase
0.96,0.73,1.00,suppressed the reduction,"OC[C@H]1O[C@H](O[C@H]2O[C@H](CO)[C@@H](O)[C@H](O)[C@H]2O)[C@H](O)[C@@H](O)[C@@H]1O [Trehalose, trehalose]",–,–,–,–,–,–,–,–
